From publication PMC10583239 (CPT: Pharmacometrics & Systems Pharmacology, 2023)
In brackets after ≈: the same amount, converted by molar mass.

Legend:
BCRP = assay: MDCK‐BCRP apparent permeability; type: in vitro ADME, canine; conditions: dog
[1] = system: Madin Darby canine kidney–breast cancer resistance protein (BCRP) cell lines; assay: MDCK‐BCRP apparent permeability; type: in vitro ADME; conditions: MDCK‐BCRP cell line
CYP1A2 = molecular target: T1, CYP1A2 (Homo sapiens, UniProt P05177); assay: Metabolic stability in recombinant human CYP1A2 with NADPH; type: in vitro ADME; conditions: CYP1A2 share of CYP metabolism, scaled by abundance and ISEF
T1 sequence (P05177 1-516): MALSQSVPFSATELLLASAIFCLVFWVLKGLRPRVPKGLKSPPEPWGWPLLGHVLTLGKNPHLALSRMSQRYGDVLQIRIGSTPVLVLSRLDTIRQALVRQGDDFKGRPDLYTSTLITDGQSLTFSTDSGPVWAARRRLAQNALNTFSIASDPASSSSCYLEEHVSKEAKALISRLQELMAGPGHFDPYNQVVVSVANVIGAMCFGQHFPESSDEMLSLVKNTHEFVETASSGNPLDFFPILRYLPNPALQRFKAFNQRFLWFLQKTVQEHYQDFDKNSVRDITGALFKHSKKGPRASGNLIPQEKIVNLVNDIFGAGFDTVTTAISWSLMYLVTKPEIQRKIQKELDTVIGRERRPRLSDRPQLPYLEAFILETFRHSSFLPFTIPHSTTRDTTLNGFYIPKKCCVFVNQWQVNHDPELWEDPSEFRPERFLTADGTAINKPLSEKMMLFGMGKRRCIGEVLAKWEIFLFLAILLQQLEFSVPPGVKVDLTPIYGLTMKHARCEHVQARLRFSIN

recombinant human CYP2A6 = molecular target: T2, recombinant human CYP2A6 (Homo sapiens, UniProt P11509); assay: Metabolic stability in recombinant human CYP2A6 with NADPH; type: in vitro ADME; conditions: CYP2A6 share of CYP metabolism, scaled by abundance and ISEF
T2 sequence (P11509 1-494): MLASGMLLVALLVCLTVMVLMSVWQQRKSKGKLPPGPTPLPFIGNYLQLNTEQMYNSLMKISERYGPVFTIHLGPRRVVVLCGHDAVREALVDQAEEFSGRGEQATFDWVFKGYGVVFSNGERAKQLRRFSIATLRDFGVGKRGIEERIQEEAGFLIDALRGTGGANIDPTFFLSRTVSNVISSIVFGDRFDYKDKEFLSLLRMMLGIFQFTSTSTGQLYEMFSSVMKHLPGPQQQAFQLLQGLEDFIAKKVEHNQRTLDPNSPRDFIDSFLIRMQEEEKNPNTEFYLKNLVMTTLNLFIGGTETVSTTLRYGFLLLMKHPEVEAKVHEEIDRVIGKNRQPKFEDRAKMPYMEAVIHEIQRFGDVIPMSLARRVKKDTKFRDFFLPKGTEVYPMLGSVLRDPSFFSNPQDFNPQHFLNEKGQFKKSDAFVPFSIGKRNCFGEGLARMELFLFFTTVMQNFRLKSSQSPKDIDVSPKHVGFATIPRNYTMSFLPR

CYP2B6 = molecular target: T3, CYP2B6 (Homo sapiens, UniProt P20813); assay: Metabolic stability in recombinant human CYP2B6 with NADPH; type: in vitro ADME; conditions: CYP2B6 share of CYP metabolism, scaled by abundance and ISEF
T3 sequence (P20813 1-491): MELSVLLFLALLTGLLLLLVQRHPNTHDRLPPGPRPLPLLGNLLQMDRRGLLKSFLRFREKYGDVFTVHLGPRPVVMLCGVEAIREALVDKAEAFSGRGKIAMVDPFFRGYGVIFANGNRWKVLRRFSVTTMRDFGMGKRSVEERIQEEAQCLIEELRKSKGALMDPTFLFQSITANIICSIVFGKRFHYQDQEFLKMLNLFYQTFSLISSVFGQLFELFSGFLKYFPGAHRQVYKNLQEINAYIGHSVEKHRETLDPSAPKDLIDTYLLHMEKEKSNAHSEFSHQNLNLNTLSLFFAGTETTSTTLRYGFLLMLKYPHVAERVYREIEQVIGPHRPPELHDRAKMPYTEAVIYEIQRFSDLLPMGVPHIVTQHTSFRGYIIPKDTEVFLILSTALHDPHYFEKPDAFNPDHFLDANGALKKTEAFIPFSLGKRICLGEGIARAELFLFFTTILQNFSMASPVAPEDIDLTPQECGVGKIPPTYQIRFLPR

CYP2C9 = CYP2C9 (Homo sapiens, UniProt P11712); assay: Metabolic stability in recombinant human CYP2C9 with NADPH; type: in vitro ADME; conditions: CYP2C9 share of CYP metabolism, scaled by abundance and ISEF
CYP2C9, sequence (P11712 whole entry): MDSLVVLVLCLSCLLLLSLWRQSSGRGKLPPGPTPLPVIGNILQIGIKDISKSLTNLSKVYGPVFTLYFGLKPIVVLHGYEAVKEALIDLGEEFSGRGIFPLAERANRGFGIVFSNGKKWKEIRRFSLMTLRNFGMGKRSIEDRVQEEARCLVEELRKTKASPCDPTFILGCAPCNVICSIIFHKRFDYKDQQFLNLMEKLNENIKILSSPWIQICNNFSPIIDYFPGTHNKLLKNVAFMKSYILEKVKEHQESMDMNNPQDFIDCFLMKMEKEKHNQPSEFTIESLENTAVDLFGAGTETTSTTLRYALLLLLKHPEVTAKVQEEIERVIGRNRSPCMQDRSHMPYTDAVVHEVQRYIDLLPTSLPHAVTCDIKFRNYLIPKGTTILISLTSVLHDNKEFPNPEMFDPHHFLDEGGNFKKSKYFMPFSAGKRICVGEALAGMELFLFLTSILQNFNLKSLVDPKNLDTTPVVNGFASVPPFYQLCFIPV

CYP2C19 [2] = molecular target: T4, CYP2C19 (Homo sapiens, UniProt P33261); assay: Metabolic stability in recombinant human CYP2C19 with NADPH; type: in vitro ADME; conditions: CYP2C19 share of CYP metabolism, scaled by abundance and ISEF
T4 sequence (P33261 whole entry): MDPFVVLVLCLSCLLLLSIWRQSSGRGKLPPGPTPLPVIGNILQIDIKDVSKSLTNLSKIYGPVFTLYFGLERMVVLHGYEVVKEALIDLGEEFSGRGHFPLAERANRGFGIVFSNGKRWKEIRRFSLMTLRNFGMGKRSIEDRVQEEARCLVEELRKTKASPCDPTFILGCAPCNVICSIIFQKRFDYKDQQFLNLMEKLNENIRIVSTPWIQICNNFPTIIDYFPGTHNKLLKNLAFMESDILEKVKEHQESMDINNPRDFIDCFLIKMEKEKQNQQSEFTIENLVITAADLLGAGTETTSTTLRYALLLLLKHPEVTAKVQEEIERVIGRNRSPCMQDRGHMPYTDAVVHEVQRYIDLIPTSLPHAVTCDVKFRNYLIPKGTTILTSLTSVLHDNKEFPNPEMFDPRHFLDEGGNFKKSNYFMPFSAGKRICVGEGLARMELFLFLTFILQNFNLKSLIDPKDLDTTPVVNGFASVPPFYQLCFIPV

recombinant human CYP2E1 = recombinant human CYP2E1 (Homo sapiens, UniProt P05181); assay: Metabolic stability in recombinant human CYP2E1 with NADPH; type: in vitro ADME; conditions: CYP2E1 share of CYP metabolism, scaled by abundance and ISEF
recombinant human CYP2E1, sequence (P05181 whole entry): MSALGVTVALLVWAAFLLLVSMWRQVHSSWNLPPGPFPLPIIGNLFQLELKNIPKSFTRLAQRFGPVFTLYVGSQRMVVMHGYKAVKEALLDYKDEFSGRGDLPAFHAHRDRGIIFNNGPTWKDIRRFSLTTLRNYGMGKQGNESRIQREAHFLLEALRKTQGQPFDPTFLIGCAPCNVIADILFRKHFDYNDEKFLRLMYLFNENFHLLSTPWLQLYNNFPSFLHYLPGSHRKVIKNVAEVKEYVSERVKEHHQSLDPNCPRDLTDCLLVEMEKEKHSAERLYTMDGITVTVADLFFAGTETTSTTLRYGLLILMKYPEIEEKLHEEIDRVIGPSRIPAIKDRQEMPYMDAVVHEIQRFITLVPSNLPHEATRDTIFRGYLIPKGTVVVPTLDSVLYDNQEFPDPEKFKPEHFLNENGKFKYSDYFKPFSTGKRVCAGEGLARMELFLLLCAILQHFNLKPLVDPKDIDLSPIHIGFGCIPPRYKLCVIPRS

CYP2C8 = molecular target: T5, CYP2C8 (Homo sapiens, UniProt P10632); assay: CYP2C8 inhibition in human liver microsomes; type: in vitro ADME
T5 sequence (P10632 1-490): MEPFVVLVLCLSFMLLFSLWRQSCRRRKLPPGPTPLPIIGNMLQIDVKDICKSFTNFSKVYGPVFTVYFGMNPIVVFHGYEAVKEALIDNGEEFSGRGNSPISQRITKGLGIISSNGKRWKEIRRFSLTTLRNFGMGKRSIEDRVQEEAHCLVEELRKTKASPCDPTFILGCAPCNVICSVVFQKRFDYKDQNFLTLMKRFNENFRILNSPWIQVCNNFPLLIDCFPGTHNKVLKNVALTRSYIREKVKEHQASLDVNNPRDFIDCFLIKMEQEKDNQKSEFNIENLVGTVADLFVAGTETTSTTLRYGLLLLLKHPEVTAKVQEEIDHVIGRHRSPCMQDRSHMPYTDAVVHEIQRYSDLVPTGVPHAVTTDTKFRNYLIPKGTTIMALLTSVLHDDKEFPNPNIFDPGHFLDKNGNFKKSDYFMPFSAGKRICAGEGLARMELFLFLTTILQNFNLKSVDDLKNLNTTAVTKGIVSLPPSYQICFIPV

CYP3A4 = CYP3A4 (Homo sapiens, UniProt P08684); assay: CYP3A4 inhibition in human liver microsomes; type: in vitro ADME
CYP3A4, sequence (P08684 whole entry): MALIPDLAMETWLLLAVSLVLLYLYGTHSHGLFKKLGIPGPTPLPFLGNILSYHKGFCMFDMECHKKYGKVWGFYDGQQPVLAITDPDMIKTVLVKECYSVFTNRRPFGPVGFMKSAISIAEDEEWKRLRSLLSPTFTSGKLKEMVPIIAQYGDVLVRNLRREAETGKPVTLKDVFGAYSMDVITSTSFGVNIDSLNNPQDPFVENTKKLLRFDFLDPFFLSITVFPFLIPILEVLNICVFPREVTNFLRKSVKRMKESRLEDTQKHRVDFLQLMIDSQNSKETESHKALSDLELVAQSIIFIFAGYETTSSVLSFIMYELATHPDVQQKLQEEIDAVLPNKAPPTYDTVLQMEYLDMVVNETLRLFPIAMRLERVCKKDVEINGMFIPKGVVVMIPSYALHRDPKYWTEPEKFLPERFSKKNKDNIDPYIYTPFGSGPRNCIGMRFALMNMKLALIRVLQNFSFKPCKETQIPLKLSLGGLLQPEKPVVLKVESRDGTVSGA

[3] = Human plasma protein binding; type: in vitro ADME; conditions: human, human plasma
Aqueous phase solubility = type: physicochemical; conditions: pH 6.71, aqueous buffer
PBPK model parameters = assay: PBPK model parameters; set-up: species or system human
CYP2C19 [4] = molecular target: T4, CYP2C19; assay: biochemical

- Papp (BCRP): 1.01 ×10⁻⁶ cm/s
- efflux ratio [1]: large
- Relative Contribution (fm) (CYP1A2): negligible
- Relative Contribution (fm) (recombinant human CYP2A6): negligible
- Relative Contribution (fm) (CYP2B6): negligible
- Relative Contribution (fm) (CYP2C9): negligible
- Relative Contribution (fm) (CYP2C19 [2]): negligible
- Relative Contribution (fm) (recombinant human CYP2E1): negligible
- Ki (CYP2C8): 1930 nM
- inhibitory effect on CYP2C8 in vitro (in words) (CYP2C8; main text summary): weak to moderate inhibition
- Ki (CYP3A4): 34.7 µM
- inhibitory effect on CYP3A4 in vitro (in words) (CYP3A4; main text summary): time‐dependent inhibition (TDI)
- fraction unbound [3]: 0.044
- solubility (Aqueous phase solubility): 10 µg/mL (≈ 21.9 µM)
- fmCYP3A4 (PBPK model parameters; PBPK input, set to match the ritonavir DDI study): 0.25
- CYP3A4 CLint (unbound) (PBPK model parameters; retrograde model from CL/F): 0.376 µL/min/pmol
- fmCYP3A4 (PBPK model parameters; value to match the ritonavir DDI study): 25%
- Ki (CYP2C19 [4]): 27.3 µM
SMILES: N#C[C@H](C[C@@H]1CCCNC1=O)NC(=O)[C@H](CC1CC1)NC(=O)c1cc2cccc(Cl)c2[nH]1 [Pomotrelvir, pomotrelvir]
